# Measured values reported in patent EP4722212A1, “NOVEL COMPOUND FOR INHIBITING PROTEIN KINASES AND PHARMACEUTICAL COMPOSITION COMPRISING SAME” (Magicbullettherapeutics Co., Ltd., priority 2023, dated 2024).
# Where two headings read alike, the source gives them in different places.
# Tests used:
# Assay in all cases: Kinase panel
# Type in all cases: biochemical
# [1] = target: HIPK4 (Homo sapiens, UniProt Q8NE63); settings: HIPK4, 1 µM; read-out: residual enzyme activity
# Outline: (§1)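 Compound at 1 µM was screened against a complete panel of purified kinases in biochemical format. Activity left after treatment was calculated and kinases inhibited by 60% or more were selected.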
# [2] = target: SNRK (Homo sapiens, UniProt Q9NRH2); settings: read-out: residual enzyme activity
# Outline: as §1
# [3] = target: LCK (Homo sapiens, UniProt P06239); settings: read-out: residual enzyme activity
# Outline: as §1
# [4] = target: NEK11 (Homo sapiens, UniProt Q8NG66); settings: NEK11, 1 µM; read-out: residual enzyme activity
# Outline: as §1
# [5] = target: KHS/MAP4K5 (Homo sapiens, UniProt Q9Y4K4); settings: KHS/MAP4K5, 1 µM; read-out: residual enzyme activity
# Outline: as §1
# [6] = target: STK21/CIT (Homo sapiens, UniProt O14578); settings: read-out: residual enzyme activity
# Outline: as §1
# [7] = target: CK1D (Homo sapiens, UniProt P48730); settings: read-out: residual enzyme activity
# Outline: as §1
# [8] = target: LIMK1 (Homo sapiens, UniProt P53667); settings: LIMK1, 1 µM; read-out: residual enzyme activity
# Outline: as §1
# [9] = target: KSR2 (Homo sapiens, UniProt Q6VAB6); settings: KSR2, 1 µM; read-out: residual enzyme activity
# Outline: as §1
# [10] = target: MLK1/MAP3K9 (Homo sapiens, UniProt P80192); settings: MLK1/MAP3K9, 1 µM; read-out: residual enzyme activity
# Outline: as §1
# [11] = target: EPHA4 (Homo sapiens, UniProt P54764); settings: EPHA4, 1 µM; read-out: residual enzyme activity
# Outline: as §1
# [12] = target: RIPK2 (Homo sapiens, UniProt O43353); settings: RIPK2, 1 µM; read-out: residual enzyme activity
# Outline: as §1
# [13] = target: C-MET (Homo sapiens, UniProt P08581); settings: read-out: residual enzyme activity
# Outline: as §1
# [14] = target: AKT2 (Homo sapiens, UniProt P31751); settings: AKT2, 1 µM; read-out: residual enzyme activity
# Outline: as §1
# [15] = target: CDK2/CYCLIN A1 (Homo sapiens, UniProt P24941); settings: CDK2/Cyclin A1, 1 µM; read-out: residual enzyme activity
# Outline: as §1
# [16] = target: MST3/STK24 (Homo sapiens, UniProt Q9Y6E0); settings: MST3/STK24, 1 µM; read-out: residual enzyme activity
# Outline: as §1
# [17] = target: GRK4 (Homo sapiens, UniProt P32298); settings: GRK4, 1 µM; read-out: residual enzyme activity
# Outline: as §1
# [18] = target: NEK5 (Homo sapiens, UniProt Q6P3R8); settings: NEK5, 1 µM; read-out: residual enzyme activity
# Outline: as §1
# [19] = target: PLK3 (Homo sapiens, UniProt Q9H4B4); settings: PLK3, 1 µM; read-out: residual enzyme activity
# Outline: as §1
# [20] = target: IR (Homo sapiens, UniProt P06213); settings: read-out: residual enzyme activity
# Outline: as §1
# [21] = target: JAK2 (Homo sapiens, UniProt O60674); settings: JAK2, 1 µM; read-out: residual enzyme activity
# Outline: as §1
# [22] = target: ABL2/ARG (Homo sapiens, UniProt P42684); settings: read-out: residual enzyme activity
# Outline: as §1
# [23] = target: PLK1 (Homo sapiens, UniProt P53350); settings: PLK1, 1 µM; read-out: residual enzyme activity
# Outline: as §1
# [24] = target: TBK1 (Homo sapiens, UniProt Q9UHD2); settings: TBK1, 1 µM; read-out: residual enzyme activity
# Outline: as §1
# [25] = target: HPK1/MAP4K1 (Homo sapiens, UniProt Q92918); settings: HPK1/MAP4K1, 1 µM; read-out: residual enzyme activity
# Outline: as §1
# [26] = target: CK1G1 (Homo sapiens, UniProt Q9HCP0); settings: read-out: residual enzyme activity
# Outline: as §1
# [27] = target: MLK2/MAP3K10 (Homo sapiens, UniProt Q02779); settings: MLK2/MAP3K10, 1 µM; read-out: residual enzyme activity
# Outline: as §1
# [28] = target: ALK4/ACVR1B (Homo sapiens, UniProt P36896); settings: read-out: residual enzyme activity
# Outline: as §1
# [29] = target: PDGFRA (Homo sapiens, UniProt P16234); settings: read-out: residual enzyme activity
# Outline: as §1
# [30] = target: TLK2 (Homo sapiens, UniProt Q86UE8); settings: TLK2, 1 µM; read-out: residual enzyme activity
# Outline: as §1
# [31] = target: CDK1/CYCLIN B (Homo sapiens, UniProt P06493); settings: read-out: residual enzyme activity
# Outline: as §1
# [32] = target: EPHA2 (Homo sapiens, UniProt P29317); settings: EPHA2, 1 µM; read-out: residual enzyme activity
# Outline: as §1
# [33] = target: MINK/MINK1 (Homo sapiens, UniProt Q8N4C8); settings: MINK/MINK1, 1 µM; read-out: residual enzyme activity
# Outline: as §1
# [34] = target: PKCIOTA (Homo sapiens, UniProt P41743); settings: read-out: residual enzyme activity
# Outline: as §1
# CK1G1, sequence (Q9HCP0 whole entry): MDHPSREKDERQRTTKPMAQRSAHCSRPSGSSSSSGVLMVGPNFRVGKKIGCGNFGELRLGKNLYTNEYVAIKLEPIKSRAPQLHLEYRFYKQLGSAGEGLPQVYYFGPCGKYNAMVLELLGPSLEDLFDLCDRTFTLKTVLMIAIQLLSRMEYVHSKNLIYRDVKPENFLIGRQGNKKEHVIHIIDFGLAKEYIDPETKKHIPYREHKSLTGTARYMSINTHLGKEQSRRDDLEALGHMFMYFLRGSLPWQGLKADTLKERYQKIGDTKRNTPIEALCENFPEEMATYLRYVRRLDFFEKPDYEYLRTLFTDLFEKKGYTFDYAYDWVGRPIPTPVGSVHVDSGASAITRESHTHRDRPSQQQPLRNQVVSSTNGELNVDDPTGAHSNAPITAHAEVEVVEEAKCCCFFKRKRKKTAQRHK
# KHS/MAP4K5, sequence (Q9Y4K4 whole entry): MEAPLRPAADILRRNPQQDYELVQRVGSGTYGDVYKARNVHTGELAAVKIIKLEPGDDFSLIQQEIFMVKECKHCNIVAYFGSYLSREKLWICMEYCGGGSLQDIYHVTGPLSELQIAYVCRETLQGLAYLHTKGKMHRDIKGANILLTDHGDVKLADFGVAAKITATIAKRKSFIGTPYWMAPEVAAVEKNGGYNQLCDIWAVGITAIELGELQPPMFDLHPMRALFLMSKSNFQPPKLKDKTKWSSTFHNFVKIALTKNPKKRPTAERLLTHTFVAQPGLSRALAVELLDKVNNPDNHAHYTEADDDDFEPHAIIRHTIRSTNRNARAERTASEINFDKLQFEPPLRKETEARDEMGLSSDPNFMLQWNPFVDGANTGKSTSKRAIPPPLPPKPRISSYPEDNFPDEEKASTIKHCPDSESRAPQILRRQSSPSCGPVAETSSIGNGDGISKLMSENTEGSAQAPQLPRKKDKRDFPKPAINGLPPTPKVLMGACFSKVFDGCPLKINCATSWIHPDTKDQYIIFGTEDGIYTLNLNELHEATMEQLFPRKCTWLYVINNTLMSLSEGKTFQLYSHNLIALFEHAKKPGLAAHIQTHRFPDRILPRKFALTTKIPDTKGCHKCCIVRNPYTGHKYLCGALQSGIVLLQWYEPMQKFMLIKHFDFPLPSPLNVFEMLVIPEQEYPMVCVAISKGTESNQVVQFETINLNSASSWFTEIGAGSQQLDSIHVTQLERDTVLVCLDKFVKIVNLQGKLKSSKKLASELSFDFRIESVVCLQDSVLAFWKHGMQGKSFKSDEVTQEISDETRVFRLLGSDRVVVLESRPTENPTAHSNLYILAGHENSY
# PLK3, sequence (Q9H4B4 whole entry, species assumed): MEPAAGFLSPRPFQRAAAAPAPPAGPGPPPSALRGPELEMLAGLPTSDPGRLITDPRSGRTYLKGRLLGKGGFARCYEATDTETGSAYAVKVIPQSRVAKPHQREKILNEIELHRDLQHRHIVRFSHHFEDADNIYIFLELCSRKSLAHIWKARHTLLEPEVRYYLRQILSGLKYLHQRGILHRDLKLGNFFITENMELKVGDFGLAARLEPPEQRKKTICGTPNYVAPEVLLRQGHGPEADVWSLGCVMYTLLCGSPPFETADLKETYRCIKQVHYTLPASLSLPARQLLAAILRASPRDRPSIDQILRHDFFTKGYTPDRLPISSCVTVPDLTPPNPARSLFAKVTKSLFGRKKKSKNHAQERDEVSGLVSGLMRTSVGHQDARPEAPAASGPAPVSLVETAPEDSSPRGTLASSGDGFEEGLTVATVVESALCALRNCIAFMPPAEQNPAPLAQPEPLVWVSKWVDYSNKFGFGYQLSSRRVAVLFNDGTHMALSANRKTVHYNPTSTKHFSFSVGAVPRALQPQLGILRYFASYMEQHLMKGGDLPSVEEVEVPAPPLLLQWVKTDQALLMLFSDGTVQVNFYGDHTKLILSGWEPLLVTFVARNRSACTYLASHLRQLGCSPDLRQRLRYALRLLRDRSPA
# AKT2, sequence (P31751 whole entry): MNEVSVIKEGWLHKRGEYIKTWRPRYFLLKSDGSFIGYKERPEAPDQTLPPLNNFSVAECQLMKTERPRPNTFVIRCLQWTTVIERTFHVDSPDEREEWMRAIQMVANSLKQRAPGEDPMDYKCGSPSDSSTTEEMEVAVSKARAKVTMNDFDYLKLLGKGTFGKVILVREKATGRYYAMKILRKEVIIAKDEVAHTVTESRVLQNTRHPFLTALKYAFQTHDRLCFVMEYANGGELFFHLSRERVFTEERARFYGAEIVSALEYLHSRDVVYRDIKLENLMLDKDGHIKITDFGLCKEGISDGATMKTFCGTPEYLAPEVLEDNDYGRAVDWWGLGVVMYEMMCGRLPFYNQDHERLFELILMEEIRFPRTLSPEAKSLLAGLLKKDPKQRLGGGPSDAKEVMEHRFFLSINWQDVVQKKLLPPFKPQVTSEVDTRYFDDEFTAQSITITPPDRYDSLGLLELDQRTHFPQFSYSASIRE
# LCK, sequence (P06239 whole entry, species assumed): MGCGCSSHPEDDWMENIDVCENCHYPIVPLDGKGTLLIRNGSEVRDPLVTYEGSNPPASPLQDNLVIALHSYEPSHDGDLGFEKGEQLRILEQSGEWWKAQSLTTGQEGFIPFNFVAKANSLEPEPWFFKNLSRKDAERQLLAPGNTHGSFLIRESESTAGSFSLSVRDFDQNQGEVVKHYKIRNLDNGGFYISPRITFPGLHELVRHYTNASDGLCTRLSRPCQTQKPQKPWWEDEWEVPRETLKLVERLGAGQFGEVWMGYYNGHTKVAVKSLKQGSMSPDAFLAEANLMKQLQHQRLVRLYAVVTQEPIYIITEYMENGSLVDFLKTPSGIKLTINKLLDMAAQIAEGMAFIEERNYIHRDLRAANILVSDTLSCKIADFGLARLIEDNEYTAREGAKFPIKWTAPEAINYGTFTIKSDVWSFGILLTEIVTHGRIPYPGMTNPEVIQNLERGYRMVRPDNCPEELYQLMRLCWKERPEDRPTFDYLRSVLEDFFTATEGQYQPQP
# TLK2, sequence (Q86UE8 whole entry, species assumed): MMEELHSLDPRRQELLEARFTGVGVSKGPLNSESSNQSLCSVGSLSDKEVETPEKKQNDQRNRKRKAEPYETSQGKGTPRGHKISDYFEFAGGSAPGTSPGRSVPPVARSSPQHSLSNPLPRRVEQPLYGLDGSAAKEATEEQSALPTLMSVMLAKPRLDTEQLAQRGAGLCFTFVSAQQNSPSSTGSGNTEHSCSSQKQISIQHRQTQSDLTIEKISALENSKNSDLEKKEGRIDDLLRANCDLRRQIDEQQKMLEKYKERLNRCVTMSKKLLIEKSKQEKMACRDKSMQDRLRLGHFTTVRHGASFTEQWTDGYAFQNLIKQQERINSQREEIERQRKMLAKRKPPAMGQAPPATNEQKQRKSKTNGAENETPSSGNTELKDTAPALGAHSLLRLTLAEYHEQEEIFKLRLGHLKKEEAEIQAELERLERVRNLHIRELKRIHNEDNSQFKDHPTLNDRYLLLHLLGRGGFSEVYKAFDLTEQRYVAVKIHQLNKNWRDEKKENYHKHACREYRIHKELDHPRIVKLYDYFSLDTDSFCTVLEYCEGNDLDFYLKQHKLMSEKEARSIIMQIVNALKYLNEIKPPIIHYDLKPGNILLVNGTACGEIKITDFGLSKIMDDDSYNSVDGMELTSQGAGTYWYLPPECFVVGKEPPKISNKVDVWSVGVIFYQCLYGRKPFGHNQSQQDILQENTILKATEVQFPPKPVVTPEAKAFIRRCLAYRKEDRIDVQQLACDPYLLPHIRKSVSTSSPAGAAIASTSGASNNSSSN
# PKCIOTA, sequence (P41743 whole entry): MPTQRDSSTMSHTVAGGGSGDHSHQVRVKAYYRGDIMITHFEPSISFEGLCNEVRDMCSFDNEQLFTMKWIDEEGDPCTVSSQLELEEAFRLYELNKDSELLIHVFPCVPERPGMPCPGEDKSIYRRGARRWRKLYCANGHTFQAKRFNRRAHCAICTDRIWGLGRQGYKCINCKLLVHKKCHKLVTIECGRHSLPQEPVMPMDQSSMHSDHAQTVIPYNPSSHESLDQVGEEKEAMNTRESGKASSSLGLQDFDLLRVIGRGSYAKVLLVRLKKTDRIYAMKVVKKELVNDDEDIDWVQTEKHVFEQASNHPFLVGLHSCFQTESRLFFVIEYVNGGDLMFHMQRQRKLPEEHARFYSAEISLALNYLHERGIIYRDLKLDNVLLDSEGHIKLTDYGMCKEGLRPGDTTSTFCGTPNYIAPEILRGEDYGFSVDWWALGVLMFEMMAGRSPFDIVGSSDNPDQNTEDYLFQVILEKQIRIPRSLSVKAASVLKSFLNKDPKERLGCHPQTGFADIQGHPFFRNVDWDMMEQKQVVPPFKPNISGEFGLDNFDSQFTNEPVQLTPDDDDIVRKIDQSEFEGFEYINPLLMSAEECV
# CDK1/CYCLIN B, sequence (P06493 whole entry, species assumed): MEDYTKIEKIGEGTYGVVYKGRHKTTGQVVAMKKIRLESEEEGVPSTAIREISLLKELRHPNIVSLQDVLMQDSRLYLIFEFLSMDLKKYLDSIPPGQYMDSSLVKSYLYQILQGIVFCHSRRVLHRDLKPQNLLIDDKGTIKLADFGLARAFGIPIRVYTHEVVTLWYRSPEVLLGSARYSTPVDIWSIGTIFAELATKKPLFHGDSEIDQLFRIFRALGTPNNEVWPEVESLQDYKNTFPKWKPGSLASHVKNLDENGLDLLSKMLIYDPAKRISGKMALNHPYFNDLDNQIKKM
# CDK1/CYCLIN B, sequence (P14635 whole entry partner, species assumed): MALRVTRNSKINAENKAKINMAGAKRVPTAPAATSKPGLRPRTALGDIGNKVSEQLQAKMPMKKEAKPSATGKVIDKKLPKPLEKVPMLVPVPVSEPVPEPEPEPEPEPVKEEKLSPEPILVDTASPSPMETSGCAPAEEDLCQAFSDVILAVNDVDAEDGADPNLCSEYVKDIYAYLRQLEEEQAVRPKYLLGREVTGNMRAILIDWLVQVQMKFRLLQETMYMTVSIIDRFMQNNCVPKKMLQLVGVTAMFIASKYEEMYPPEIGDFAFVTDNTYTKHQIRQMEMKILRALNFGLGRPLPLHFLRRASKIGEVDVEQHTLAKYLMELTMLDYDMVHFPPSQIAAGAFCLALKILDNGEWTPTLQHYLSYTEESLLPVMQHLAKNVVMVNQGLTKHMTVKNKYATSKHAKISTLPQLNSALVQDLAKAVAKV
Structure (SMILES),remaining activity at 1 µM [1] [%],remaining activity at 1 µM [2] [%],remaining activity at 1 µM [3] [%],remaining activity at 1 µM [4] [%],remaining activity at 1 µM [5] [%],remaining activity at 1 µM [6] [%],remaining activity at 1 µM [8] [%],remaining activity at 1 µM [9] [%],remaining activity at 1 µM [10] [%],remaining activity at 1 µM [11] [%],remaining activity at 1 µM [12] [%],remaining activity at 1 µM [14] [%],remaining activity at 1 µM [15] [%],remaining activity at 1 µM [16] [%],remaining activity at 1 µM [17] [%],remaining activity at 1 µM [18] [%],remaining activity at 1 µM [19] [%],remaining activity at 1 µM [20] [%],remaining activity at 1 µM [21] [%],remaining activity at 1 µM [22] [%],other results
"Cc1cn(-c2cc(C(=O)Nc3ccc(C)c(N4Cc5cnc(NC6CC6)nc5C5(CC5)C4=O)c3)cc(C(F)(F)F)c2)cn1 [Compound 8, N-(3-(2'-(cyclopropylamino)-7'-oxo-5'H-spiro[cyclopropane-1,8'-pyrido[4,3-d]pyrimidine]-6'(7'H)-yl)-4-methylphenyl)-3-(4-methyl-1H-imidazol-1-yl)-5-(trifluoromethyl)benzamide]",> 40,> 40,≤ 40,> 40,≤ 40,> 40,≤ 40,> 40,> 40,≤ 40,> 40,> 40,> 40,> 40,> 40,> 40,> 40,> 40,≤ 40,≤ 40,"remaining activity at 1 µM ([7]; CK1D): > 40%; remaining activity at 1 µM ([13]; C-MET): > 40%; remaining activity at 1 µM [23]: > 40%; remaining activity at 1 µM [24]: > 40%; remaining activity at 1 µM [25]: ≤ 40%; remaining activity at 1 µM ([26]; CK1G1, 1 µM): > 40%; remaining activity at 1 µM [27]: > 40%; remaining activity at 1 µM [28]: > 40%; remaining activity at 1 µM [29]: ≤ 40%; remaining activity at 1 µM [30]: > 40%; remaining activity at 1 µM [31]: > 40%; remaining activity at 1 µM [32]: ≤ 40%; remaining activity at 1 µM [33]: ≤ 40%; remaining activity at 1 µM [34]: > 40%"
"Cc1ccc(Nc2ncc3c(n2)C2(CC2)C(=O)N(c2cc(NC(=O)c4cccc(C(F)(F)F)c4)ccc2C)C3)cn1 [Compound 51, N-(4-methyl-3-(2'-((6-methylpyridin-3-yl)amino)-7'-oxo-5'H-spiro[cyclopropane-1,8'-pyrido[4,3-d]pyrimidine]-6'(7'H)-yl)phenyl)-3-(trifluoromethyl)benzamide]",≤ 40,> 40,≤ 40,≤ 40,≤ 40,> 40,≤ 40,> 40,≤ 40,≤ 40,> 40,> 40,> 40,> 40,> 40,> 40,> 40,> 40,≤ 40,≤ 40,"remaining activity at 1 µM ([7]; CKld): > 40%; remaining activity at 1 µM ([13]; c-MET): > 40%; remaining activity at 1 µM [23]: > 40%; remaining activity at 1 µM [24]: > 40%; remaining activity at 1 µM [25]: ≤ 40%; remaining activity at 1 µM ([26]; CK1g1, 1 µM): > 40%; remaining activity at 1 µM [27]: ≤ 40%; remaining activity at 1 µM [28]: > 40%; remaining activity at 1 µM [29]: ≤ 40%; remaining activity at 1 µM [30]: > 40%; remaining activity at 1 µM [31]: > 40%; remaining activity at 1 µM [32]: ≤ 40%; remaining activity at 1 µM [33]: ≤ 40%; remaining activity at 1 µM [34]: > 40%"
